Patent publication US8247211B2, “Glycopeptide antibiotics” (American Cyanamid Company, priority 2001, dated 2012)
In brackets after ≈: the same amount, converted by molar mass.

Experiments:
Assay in all cases: In vitro antibacterial evaluation: minimum inhibitory concentration (MIC), broth dilution method
Assay type in all cases: cell-based
Staphylococcus sp. = conditions: broth dilution, 18 hours at 35° C.
Method in brief: (§1)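 An MIC is reported for each organism as the least concentration giving inhibition, using broth dilution over 64-0.06 μg/mL with a 5×10^5 CFU/mL inoculum.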

Enterococcus sp. = tested on: Enterococcus sp.
Method in brief: as §1

Escherichia coli = tested on: Escherichia coli
Method in brief: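 First, organisms are seeded at 5×10^5 CFU/mL into Muller-Hinton II […]. Next, antibiotic is applied across 64-0.06 μg/mL by broth dilution (NCCLS M7-A2). Finally, the lowest inhibitory concentration is recorded as MIC.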

Streptococcus sp. = tested on: Streptococcus sp.
Method in brief: as §1

[1] = broth dilution, inoculum 5×10^5 CFU/mL, 18 hours at 35° C.

MIC Coagulase Negative Staphylococcus (GC 4547) (Staphylococcus sp.; 5×10^5 CFU/mL): 8 µg/mL (≈ 5.46 µM) | MIC Coagulase Negative Staphylococcus (GC 4548) (Staphylococcus sp.; 5×10^5 CFU/mL): 1 µg/mL (≈ 0.682 µM) | MIC Coagulase Negative Staphylococcus (GC 4549) (Staphylococcus sp.; 5×10^5 CFU/mL): 4 µg/mL (≈ 2.73 µM) | MIC Coagulase Negative Staphylococcus (GC 4551) (Staphylococcus sp.; 5×10^5 CFU/mL): 2 µg/mL (≈ 1.36 µM) | MIC Coagulase Negative Staphylococcus (GC 6257) (Staphylococcus sp.; 5×10^5 CFU/mL): 2 µg/mL (≈ 1.36 µM) | MIC Staphylococcus aureus (ATCC 29213) (Staphylococcus sp.; 5×10^5 CFU/mL): 4 µg/mL (≈ 2.73 µM) | MIC Staphylococcus aureus (GC 1131) (Staphylococcus sp.; 5×10^5 CFU/mL): 4 µg/mL (≈ 2.73 µM) | MIC Staphylococcus aureus (GC 3051) (Staphylococcus sp.; 5×10^5 CFU/mL): 8 µg/mL (≈ 5.46 µM) | MIC Staphylococcus aureus (GC 3053) (Staphylococcus sp.; 5×10^5 CFU/mL): 8 µg/mL (≈ 5.46 µM) | MIC Staphylococcus aureus (GC 4541) (Staphylococcus sp.; 5×10^5 CFU/mL): 4 µg/mL (≈ 2.73 µM) | MIC Staphylococcus aureus (GC 4542) (Staphylococcus sp.; 5×10^5 CFU/mL): 4 µg/mL (≈ 2.73 µM) | MIC Staphylococcus aureus (GC 4544) (Staphylococcus sp.; 5×10^5 CFU/mL): 4 µg/mL (≈ 2.73 µM) | MIC Staphylococcus aureus (GC 4545) (Staphylococcus sp.; 5×10^5 CFU/mL): 4 µg/mL (≈ 2.73 µM) | MIC Staphylococcus aureus-SMITH (GC 4543) (Staphylococcus sp.; 5×10^5 CFU/mL): 1 µg/mL (≈ 0.682 µM) | MIC Staphylococcus aureus (ATCC 29213) (Staphylococcus sp.; strain ATCC 29213): 4 µg/mL (≈ 2.73 µM) | MIC Staphylococcus aureus (GC 1131) (Staphylococcus sp.; strain GC 1131): 4 µg/mL (≈ 2.73 µM) | MIC Staphylococcus aureus (GC 3051) (Staphylococcus sp.; strain GC 3051): 8 µg/mL (≈ 5.46 µM) | MIC Staphylococcus aureus (GC 3053) (Staphylococcus sp.; strain GC 3053): 8 µg/mL (≈ 5.46 µM) | MIC Staphylococcus aureus (GC 4541) (Staphylococcus sp.; strain GC 4541): 4 µg/mL (≈ 2.73 µM) | MIC Staphylococcus aureus (GC 4542) (Staphylococcus sp.; strain GC 4542): 4 µg/mL (≈ 2.73 µM) | MIC Staphylococcus aureus-SMITH (GC 4543) (Staphylococcus sp.; strain GC 4543): 1 µg/mL (≈ 0.682 µM) | MIC Staphylococcus aureus (GC 4544) (Staphylococcus sp.; strain GC 4544): 4 µg/mL (≈ 2.73 µM) | MIC Staphylococcus aureus (GC 4545) (Staphylococcus sp.; strain GC 4545): 4 µg/mL (≈ 2.73 µM) | MIC Coagulase Negative Staphylococcus (GC 4547) (Staphylococcus sp.; strain GC 4547): 8 µg/mL (≈ 5.46 µM) | MIC Coagulase Negative Staphylococcus (GC 4548) (Staphylococcus sp.; strain GC 4548): 1 µg/mL (≈ 0.682 µM) | MIC Coagulase Negative Staphylococcus (GC 4549) (Staphylococcus sp.; strain GC 4549): 4 µg/mL (≈ 2.73 µM) | MIC Coagulase Negative Staphylococcus (GC 4551) (Staphylococcus sp.; strain GC 4551): 2 µg/mL (≈ 1.36 µM) | MIC Coagulase Negative Staphylococcus (GC 6257) (Staphylococcus sp.; strain GC 6257): 2 µg/mL (≈ 1.36 µM) | MIC Enterococcus avium (GC 4558) (Enterococcus sp.; [1]): 4 µg/mL (≈ 2.73 µM) | MIC Enterococcus faecalis (ATCC 29212) (Enterococcus sp.; [1]): 8 µg/mL (≈ 5.46 µM) | MIC Enterococcus faecalis (GC 2242) (Enterococcus sp.; [1]): 4 µg/mL (≈ 2.73 µM) | MIC Enterococcus faecalis (GC 2691) (Enterococcus sp.; [1]): 4 µg/mL (≈ 2.73 µM) | MIC Enterococcus faecalis (GC 3059) (Enterococcus sp.; [1]): 8 µg/mL (≈ 5.46 µM) | MIC Enterococcus faecalis (GC 4552) (Enterococcus sp.; [1]): 8 µg/mL (≈ 5.46 µM) | MIC Enterococcus faecalis (GC 4553) (Enterococcus sp.; [1]): 4 µg/mL (≈ 2.73 µM) | MIC Enterococcus faecalis (GC 4554) (Enterococcus sp.; [1]): 8 µg/mL (≈ 5.46 µM) | MIC Enterococcus faecalis (GC 6189) (Enterococcus sp.; [1]): 4 µg/mL (≈ 2.73 µM) | MIC Enterococcus faecium (GC 2243) (Enterococcus sp.; [1]): 8 µg/mL (≈ 5.46 µM) | MIC Enterococcus faecium (GC 4556) (Enterococcus sp.; [1]): 4 µg/mL (≈ 2.73 µM) | MIC Enterococcus faecium (GC 4557) (Enterococcus sp.; [1]): 8 µg/mL (≈ 5.46 µM) | MIC Enterococcus faecalis (ATCC 29212) (Enterococcus sp.; strain ATCC 29212): 8 µg/mL (≈ 5.46 µM) | MIC Enterococcus faecalis (GC 2242) (Enterococcus sp.; strain GC 2242): 4 µg/mL (≈ 2.73 µM) | MIC Enterococcus faecium (GC 2243) (Enterococcus sp.; strain GC 2243): 8 µg/mL (≈ 5.46 µM) | MIC Enterococcus faecalis (GC 2691) (Enterococcus sp.; strain GC 2691): 4 µg/mL (≈ 2.73 µM) | MIC Enterococcus faecalis (GC 3059) (Enterococcus sp.; strain GC 3059): 8 µg/mL (≈ 5.46 µM) | MIC Enterococcus faecalis (GC 4552) (Enterococcus sp.; strain GC 4552): 8 µg/mL (≈ 5.46 µM) | MIC Enterococcus faecalis (GC 4553) (Enterococcus sp.; strain GC 4553): 4 µg/mL (≈ 2.73 µM) | MIC Enterococcus faecalis (GC 4554) (Enterococcus sp.; strain GC 4554): 8 µg/mL (≈ 5.46 µM) | MIC Enterococcus faecium (GC 4556) (Enterococcus sp.; strain GC 4556): 4 µg/mL (≈ 2.73 µM) | MIC Enterococcus faecium (GC 4557) (Enterococcus sp.; strain GC 4557): 8 µg/mL (≈ 5.46 µM) | MIC Enterococcus avium (GC 4558) (Enterococcus sp.; strain GC 4558): 4 µg/mL (≈ 2.73 µM) | MIC Enterococcus faecalis (GC 6189) (Enterococcus sp.; strain GC 6189): 4 µg/mL (≈ 2.73 µM) | MIC Escherichia coli (ATCC 25922) (Escherichia coli; strain ATCC 25922): >64 µg/mL | MIC Escherichia coli (GC 4559) (Escherichia coli; strain GC 4559): 64 µg/mL (≈ 43.7 µM) | MIC Escherichi coli (GC 4560) (Escherichia coli; strain GC 4560): 8 µg/mL (≈ 5.46 µM) | MIC Streptococcus agalactiae (GC 4564) (Streptococcus sp.; [1]): <0.5 µg/mL | MIC Streptococcus pneumoniae (ATCC 6301) (Streptococcus sp.; [1]): <0.5 µg/mL | MIC Streptococcus pneumoniae (GC 1894) (Streptococcus sp.; [1]): <0.5 µg/mL | MIC Streptococcus pneumoniae (GC 4565) (Streptococcus sp.; [1]): 1 µg/mL (≈ 0.682 µM) | MIC Streptococcus pyogenes (GC 4563) (Streptococcus sp.; [1]): <0.5 µg/mL | MIC Streptococcus pneumoniae (ATCC 6301) (Streptococcus sp.; strain ATCC 6301): <0.5 µg/mL | MIC Streptococcus pneumoniae (GC 1894) (Streptococcus sp.; strain GC 1894): <0.5 µg/mL | MIC Streptococcus pyogenes (GC 4563) (Streptococcus sp.; strain GC 4563): <0.5 µg/mL | MIC Streptococcus agalactiae (GC 4564) (Streptococcus sp.; strain GC 4564): <0.5 µg/mL | MIC Streptococcus pneumoniae (GC 4565) (Streptococcus sp.; strain GC 4565): 1 µg/mL (≈ 0.682 µM)
Compound: CC(c1ccccc1)C1NC(=O)CNC(=O)C(CO)NC(=O)C(C(O)C2CNC(=N)N2C2OC(CO)C(O)C(O)C2O)NC(=O)C(C(O)C2CNC(=N)N2)NC(=O)C(Cc2ccc(OC3OC(CO)C(OC4OC5COC(c6ccc(-c7cccs7)cc6)OC5C(O)C4O)C(O)C3O)cc2)NC1=O (stereo not drawn) [Example 163, Cyclo[glycyl-β-methylphenylalanyl-O-[4-O-[4,6-O-[4-(2-thienyl)benzylidene]hexopyranosyl]-hexopyranosyl]tyrosyl-3-(2-iminoimidazolidin-4-yl)seryl-3-(3-hexopyranosyl-2-iminoimidazolidin-4-yl)serylseryl]]
MIC Staphylococcus haemolyticus (GC 4546) (Staphylococcus sp.; 5×10^5 CFU/mL): 4 µg/mL (≈ 2.73 µM) | MIC Staphylococcus haemolyticus (GC 4546) (Staphylococcus sp.; strain GC 4546): 4 µg/mL (≈ 2.73 µM)
